The results in this text go back to PubChem BioAssay AID434987 (Southern Research Specialized Biocontainment Screening …, 2010).

A word on the IC50: it is the concentration at which inhibition is half-maximal. What is called IC90 is the concentration needed for an effect of 90%. A high value points to weaker potency.

The test system of the experiment is M. tuberculosis H37Rv growth inhibition with meropenem. Briefly: dose response, H37Rv, with and without meropenem (AID 434987).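 Note: growth over 7 days at 37 °C before Alamar Blue read on day 9.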
[1] abbreviates: M. tuberculosis H37Rv growth inhibition, measured here: IC50 without meropenem.
The mark [2] stands for this setting: M. tuberculosis H37Rv growth inhibition, measured here: IC90 without meropenem.
[3] abbreviates: measured here: IC90 with meropenem.

The source made the active and inactive calls. The rule behind the calls is not given here.

For `O=C(Cc1ccc(Cl)cc1Cl)Nc1ccc(OC(F)F)c(Cl)c1`, the IC50 was 12.1 µM. The IC50 under setting [1] is more than 100 µM. Under setting [2], this molecule had an IC90 of more than 100 µM. The molecule also registered an IC90 under setting [3] of 13.7 µM.

Consider `COc1ccc(-c2csc(-c3cccs3)n2)c(OC)c1`, for which the IC50 was 67.6 µM (inactive). The IC50 under setting [1] came out at 68.2 µM. For the same molecule, the IC90 under setting [2] was more than 100 µM. Under setting [3], the IC90 is more than 100 µM.

As to `COC(=O)c1c(NC(=O)C2c3ccccc3Oc3ccccc32)sc(C)c1C`, the IC50 is > 100 µM (inactive). Also, the IC50 under setting [1] was more than 100 µM. Under setting [2], the IC90 was more than 100 µM. Moreover, the IC90 under setting [3] was more than 100 µM.

Turning to `Cc1ccc(OCC(=O)N/N=C/c2cn(C)c3ccccc23)cc1`, the IC50 is 24.7 µM. In addition, under setting [1], the IC50 is more than 100 µM. This molecule displayed an IC90 under setting [2] of more than 100 µM. Also, the IC90 under setting [3] was more than 100 µM.

Regarding `Cc1cc(C)n(-c2nc(-c3ccc(Cl)c(Cl)c3)cs2)n1`, the IC50 was 14.5 µM. The molecule also had an IC50 under setting [1] of more than 100 µM. The IC90 under setting [2] was more than 100 µM. Under setting [3], this molecule displayed an IC90 of more than 100 µM.

Regarding `O=C(N/N=C/c1ccc(OC(=O)c2ccc3c(c2)OCO3)cc1)c1cncc(Br)c1`, the IC50 is 5.48 µM. The molecule also returned an IC50 under setting [1] of 45.7 µM. This molecule showed an IC90 under setting [2] of more than 100 µM. Under setting [3], this molecule showed an IC90 of 48.3 µM.

On to `COc1cccc(C(=O)C2CCCN(Cc3ccccn3)C2)c1` (stereo not drawn), for which the IC50 is 1.46 µM. Besides, the IC50 under setting [1] was determined as 16.2 µM. The IC90 under setting [2] was more than 100 µM. The molecule further came in with an IC90 under setting [3] of 97.5 µM.
